Results on 3 molecules are retold here after patent publication US20040052754A1, “Complexes of phosphate derivatives” (priority 2000, published 2004).

Data set [1] can be described thus: Vapour pressure osmometry (dissociation in water). The format is physicochemical. The note with it: arbitrary scale. The source says:
A vapour pressure osmometer was used to investigate the dissociation of the di-sodium alpha tocopheryl phosphate N-lauryl imino dipropionate complex by comparing the lowering of the equilibrium temperature to give an identical partial pressure of water vapour around a drop of pure water versus various solutions as an indication of the relative moles of solute.
N-lauryl imino dipropionate alone gives three ions and at 0.05M the effect was 38 units. If the complex was readily dissociated, then the additional tocopheryl phosphate would be expected to increase the effect in the ratio 3:5 by the addition of the charged amino group as a cation and tocopheryl hydrogen phosphate anion.

Another data set relates to Human cadaver skin. Put plainly: In vitro human skin penetration study. In kind it is in vitro ADME. The note with it: analyte tocopheryl acetate. The method, then: DSS was similar in TP and […] content, however, unlike TPC, DSS existed as the mixed sodium salts. A slurry of 6.25 w/w % of 80% DSS in 93.75 w/w % of the 95/5-water/ethanol mixture iwa prepared. Tocopheryl acetate was obtained from Roche/BASF. 5.0 w/w % of TA was dispersed in 95.0 w/w % of 95/5 water/ethanol mixture. The test formulations were evaluated in in vitro human skin penetration studies. […] The tests were conducted by […] International (San Diego, Calif.). Human cadaver skin was obtained and prepared. […] Receptor solutions were collected over 48 hours at pre-selected time intervals. After 48 hours the skin surface was washed with isopropyl alcohol, and the skin was collected and split into epidermis and dermis. The skin sections were extracted with isopropyl alcohol.

With `CCCCCCCCCCCCN(CCC(=O)O)CCC(=O)O` [N-lauryl imino dipropionate], the Osmometer effect in data set [1] (0.05M in water) came to 38 units.

As to `CC(=O)Oc1c(C)c(C)c2c(c1C)CCC(C)(CCC[C@H](C)CCC[C@H](C)CCCC(C)C)O2` (stereo partly drawn) [TA, Tocopheryl acetate], the “Dermis/Epidermis Ratio, Tocopheryl Acetate” value with Human cadaver skin (48 hours) is listed as 0.20. Besides, the “Percent distribution recovered: Tocopheryl Acetate, Dermis” value with Human cadaver skin (dermis after 48 hours, 5 μL/cm^2 topical dose) was determined as 1.39 wt/wt %. Besides, the “Percent distribution recovered: Tocopheryl Acetate, Epidermis” value in the data set on Human cadaver skin (epidermis after 48 hours, 5 μL/cm^2 topical dose) is recorded as 7.13 wt/wt %. Also, in the data set on Human cadaver skin (surface wash after 48 hours, 5 μL/cm^2 topical dose), the “Percent distribution recovered: Tocopheryl Acetate, Surface Wash” value was found to be 91.48 wt/wt %.

In the case of `[Cl-].[Na+]` [sodium chloride], in data set [1] (0.1M in water), the Osmometer effect was 29 unit.
